The values that follow come from patent US8945921B2, “Modulating the production of neurons and/or oligodendrocytes from white matter progenitor cells” (Cornell Research Foundation, Inc., priority 2003, dated 2015).

This test deals with adult human white matter progenitor cells (WMPCs). Briefly: Tyrosine phosphatase inhibition: oligodendrocyte differentiation of cultured WMPCs (A2B5/O4/BrdU immunocytochemistry). The test is classed as cell-based. On the procedure:
WMPCs were distributed onto 12-well plates coated with poly-L-ornithine and fibronectin at 5×10^4 cells/ml in DMEM/F12/N1 supplemented with 10 ng/ml bFGF (Sigma), 10 ng/ml PDGF-AA (Sigma), and 2 ng/ml NT3 (R&D Systems). Stock solutions of 1 μM bpV(phen) (potassium bisperoxo (1,10-phenanthroline) oxovanadate (V); Calbiochem) were prepared before each use. Cells were exposed to concentrations of 0, 1, 5, 10, and 25 ng/ml of bV(phen) immediately upon plating, and every 2 days thereafter for 7 day in vitro.
Cultures were exposed continuously to 10 μg/ml BrdU beginning 24 hours before fixation. After 7 days in vitro, A2B5 and O4 were immunolabeled as previously described (Roy et al., “Identification, Isolation, and Promoter-defined Separation of Mitotic Oligodendrocyte Progenitor Cells from the Adult Human Subcortical White Matter,” J. Neurosci 19:9986-95 (1999), which is hereby incorporated by reference in its entirety). For multiple antigen labeling, O4 and A2B5 were localized on live cells that were then fixed with 4% paraformaldehyde and immunostained for BrdU. O4 supernatant was used at a dilution of 1:100 and monoclonal antibody A2B5 supernatant (clone 105, American Type Culture Collection) was used in a 1:1 ratio with DMEM/F12/N, both for 40 minutes at 4° C. Rat anti-BrdU antibody (Harlan) was used at a dilution of 1:200. Fixed cultures were counterstained with DAPI (10 ng ml; Molecular Probes). The number of A2B5 and O4 stained and unstained cells were counted in 10 randomly chosen fields at each dosage level, from individual replicate samples (n=4). Statistical significance was assessed by one-way repeated measures analysis of variance (ANOVA), followed by Tukey's multiple comparisons test (GraphPad Prism 3.0, p<0.05).
Due to the high expression of the tyrosine phosphatase receptor RTPβ/ζ in WMPCs, the effect of tyrosine phosphatase inhibition on the differentiation of WMPCs was assessed. bpV(phen), a known potent inhibitor of tyrosine phosphatase activity, was used to induce inhibition (Posner et al., “Peroxovanadium Compounds. A New Class of Potent Phosphotyrosine Phosphatase Inhibitors Which Are Insulin Mimetics,” J Biol Chem 269: 4596-4604 (1994); Bevan et al., “Selective Activation of the Rat Hepatic Endosomal Insulin Receptor Kinase. Role for the Endosome in Insulin Signaling,” J Biol Chem 270: 10784-10791 (1995); Faure et al., “Arrest at The G2/M Transition of the Cell Cycle by Protein-Tyrosine Phosphatase Inhibition Studies on a Neuronal and a Glial Cell Line,” J Cell Biochem 59: 389-401 (1995), which are hereby incorporated by reference in their entirety). […] Statistical significance was first detected at 1 ng/ml bpV(phen) in the A2B5 positive population and 10 ng ml bpV(phen) in the O4 positive population. The O4/A2B5 ratio rose drastically from under 10 percent to 70 percent in response to 25 ng/ml treatment with bpV(phen) (FIG. 1E).

Where [1] appears, read: 7 days in vitro, doses 0, 1, 5, 10, 25 ng/ml.
Where [2] appears, read: between dosage levels 0-25 ng/ml, 7 days in vitro.

For `O.O.O.OO.OO.[K+].[OH-].[V].c1cnc2c(c1)ccc1cccnc12` [bpV(phen), potassium bisperoxo (1,10-phenanthroline) oxovanadate (V)], the “percentage of O4+ cells” value (25 ng ml, 7 days in vitro, n=4 patients, untreated 20±8.4%) turned out to be 54±17.6%. Also, the “percentage of progenitor A2B5+ cells” value (25 ng/ml, 7 days in vitro, n=4 patients, untreated 15±2.2%) is listed as 4±0.5%. Besides, the O4/A2B5 ratio (25 ng/ml, 7 days in vitro, untreated under 10 percent) is given as 70%. Under setting [1], the “concentration at which statistical significance was first detected, A2B5 positive population” value stood at 1 ng/mL and the “concentration at which statistical significance was first detected, O4 positive population” value was 10 ng·mL. The “effect on WMPC expansion and differentiation” value (WMPCs exposed to the RTP inhibitor) was “ceased expansion and differentiated as oligodendrocytes”. In addition, under setting [2], the “number of A2B5+ BrdU+ cells” value is recorded as “unchanged” and the total cell number entry is listed as “unchanged”.
